3 molecules from article PMC12250347, “Calcium-dependent pathway as a primary cause of hypoxic RGC damage in monkey retinal explants” (PLOS One, 2025) can be followed below.

Entries after “also recorded” stand apart in the source; their conditions may differ.

Test [1] concerns purified porcine calpain 2. The experiment in a line: Calpain-Glo Protease Assay. It counts as biochemical. As to conditions: 5 mM CaCl2, 10 min, room temperature; mean of two experiments. From the text:
The porcine kidney was obtained from DART Co., Ltd. as part of a program aimed at the effective utilization of livestock by-products in Hokkaido, Japan. The procurement process followed ethical guidelines from Livestock Industry Bureau MAFF-J (ministry of agriculture, forestry and fisheries of Japan) for farm animal use, ensuring compliance with relevant regulations. Two porcine kidneys were rapidly frozen after removal, trimmed free of excess tissue or renal pelvis, and cut into small pieces (approximately 2 × 2 cm) before they thawed. About 250 g of these pieces were homogenized in 1200 mL of ice-cold 20 mM Tris-HCl (pH 8.0) with 5 mM ethylenediaminetetraacetic acid (EDTA), 0.1% 2-mercaptoethanol (2-ME), 0.1 mg/mL Pefabloc SC (MilliporeSigma, Burlington, MA, USA), 40 µg/mL bestatin, and 4 µg/mL pepstatin in a Waring blender HGBSS (Waring; Stamford, CT, USA) at 19,000 rpm using several bursts of 10 sec each with 20 sec cooling periods between each burst. The homogenate was centrifuged at 25,000 × g for 15 min at 4°C, and the supernatant was filtered through glass wool and a 5 µm filter (Merck) to remove floating lipids. The purification procedure was performed according to the method of Thompson and Goll with some minor modifications: the DEAE-cellulose and the DEAE-TSK ToyoPearl 650S columns were substituted with DEAE sepharose fast flow (Merck) and TSKgel DEAE-5PW (30) (Tosoh; Tokyo, Japan) columns, respectively. After purification, calpain-2 was dialyzed, and glycerol was added for freeze-thaw protection. The final buffer formulation was 20 mM imidazole, 5 mM 2-ME, 1 mM EDTA, 1 mM EGTA, and 20% glycerol.
For measurement of inhibitory activities against calpains in vitro, Calpain-Glo Protease Assay (Promega; Madison, WI, USA) was performed using human erythrocyte calpain 1 (MilliporeSigma) and purified porcine calpain 2. Briefly, 24 µL of each calpain diluted with 20 mM Tris-HCl (pH 7.4), 1 µL of each inhibitor, and 25 µL of reaction buffer including CaCl2 in a 96-well plate was incubated for 10 min at room temperature. The final concentration of CaCl2 in the reaction solution was 5 mM. The luminescence was measured using a microplate reader (GloMax Discover System; Promega). IC50 values from two independent experiments were averaged.

Test [2] relates to calpain 1 activation and proteolysis of α-spectrin. Briefly: Immunoblotting of retinal explants under hypoxia/reoxygenation. The format is cell-based, rhesus macaques (Macaca mulatta). As to conditions: H16R8. Here is the method:
Retina explant culture was performed as described in our previous report, except for the induction of hypoxia. Briefly, a hypoxic chamber (Coy Laboratory Products, Grass Lake, MI, USA) was controlled at 0.3% oxygen with a 95% N2/5% CO2 gas mixture. Retinas were dissected into fan-shaped explants with 6 or 7 petals (> 5 mm) in HBSS. Each explant was placed with the RGC side facing up on a Millicell organotypic standing insert (0.4 μm, 30 mm diameter, MilliporeSigma) in six-well, culture plates. They were cultured for 2 hr at 37°C under 95% N2/5% CO2 in Neurobasal-A medium supplemented with B27, N2 supplements, 2 mM L-glutamine (Thermo Fisher Scientific, Waltham, MA, USA), and 100 μg/mL primocin (Invivogen, San Diego, CA, USA). Retinal explants were then chamber-cultured under hypoxic conditions for 16 hr in a culture medium with 0.5 mM glucose, under 0.3% oxygen. The retinas were then re-oxygenated for 8 hr in a culture medium with 5.5 mM glucose. Normoxic control retinas were cultured for 24 hr in a culture medium with 5.5 mM glucose. When present, calpain inhibitors (SNJ-1945, PD-151746, C2I, and ABT-957) and cathepsin inhibitors (Odanacatib and SID26681509) in 0.1% DMSO were used at the final concentration of 10 or 100 μM in the medium. BAPTA (Thermo Fisher Scientific) and BAPTA-AM (Thermo Fisher Scientific) were also used at a final concentration of 3 or 10 mM or a final concentration of 100 or 500 μM, respectively.
All inhibitors and BAPTA were treated simultaneously with hypoxia induction, and BAPTA-AM treatment was 2 hr before hypoxia induction.
Each retinal explant was sonicated in RIPA Lysis and Extraction Buffer (Thermo Fisher Scientific), with protease inhibitors cocktail (Complete Mini-EDTA-free; MilliporeSigma). Protein concentrations in lysates were measured by BCA assay (Pierce BCA Protein Assay Kit, Thermo Fisher Scientific) using bovine serum albumin as a standard. For immunoblotting, 5 μg of each sample was loaded and run on 4% to 12% gradient or 10% SDS-PAGE gels (NuPAGE Bis-Tris Protein Gels, Thermo Fisher Scientific) with 2-(N-morpholino)ethanesulfonic acid buffer or 3-(N-morpholino) propanesulfonic acid buffer (Thermo Fisher Scientific). Proteins were then electrotransferred to a polyvinylidene fluoride membrane (MilliporeSigma) at 100 V for 60 min or 1.5 hr. Membranes were then blocked with 5% skim milk in Tris-buffer saline (Bio-Rad Laboratories, Hercules, CA, USA) containing 0.05% Tween 20. Each membrane was probed with primary antibodies against α-spectrin (1:2000 dilution, Enzo Life Sciences, Farmingdale, NY, USA), SBDP150 (1:1000 dilution, Senju Pharmaceutical), calpain 1 (1:1000 dilution, Thermo Fisher Scientific), calpain 2 (1:500, GeneTex, Irvine, CA, USA), cathepsin K (1:500 dilution, Abcam), and β-actin (1:1000 dilution, Merck). For calpain 1, immunoreactivity was visualized using a secondary antibody conjugated to alkaline phosphatase and the AP Conjugate Substrate Kit (Bio-Rad Laboratories). For other proteins, immunoreactivities were visualized using secondary antibodies conjugated with rabbit (Santa Cruz Biotechnology) or mouse horseradish peroxidase enzyme (Cytiva, Wilmington, DE, USA) and ECL Plus detection reagents (Cytiva). Images of the membranes were captured with FluorChem FC2 imager (Cell Biosciences, Santa Clara, CA, USA). The conversion of pro-cathepsin K (38 kDa) to its mature form (27 kDa) was used as an indicator of cathepsin K activation.

Where [3] appears, read: cathepsin inhibitor at 10 or 100 µM.

For orientation: IC50 means the concentration at which inhibition is half-maximal. A low value points to higher potency. Molecule `CCc1ccccc1NC(=O)CSC(=O)NNC(=O)[C@H](Cc1c[nH]c2ccccc12)NC(=O)OC(C)(C)C` [SID26681509] returned an IC50 in test [1] of 93.2 µM. Besides, in test [2] (setting [3]), the “Effect on activation of calpain 1 and proteolysis of α-spectrin (immunoblot)” value (“Effect on activation” for short) was “did not mitigate”.

As to `CC(C)(F)C[C@H](N[C@@H](c1ccc(-c2ccc(S(C)(=O)=O)cc2)cc1)C(F)(F)F)C(=O)NC1(C#N)CC1` [Odanacatib], the “IC50 Porcine Calpain 2” value in test [1] is given as “No effect”. Also, in test [2] (setting [3]), the “Effect on activation” value is reported as “did not mitigate”.

In turn, `COCCOCCOC(=O)N[C@@H](CC(C)C)C(=O)N[C@@H](Cc1ccccc1)C(=O)C(=O)NC1CC1` [SNJ-1945] displayed an IC50 in test [1] of 0.072 µM. Further, in test [2] (calpain inhibitors (SNJ-1945 100 µM)), the “Effect on activation” value is recorded as “effectively ameliorated; also recorded: inhibited the autolytic activation of calpain 1; also recorded: nearly completely inhibited calpain-induced proteolysis”.
